# Experimental data: ChEMBL document CHEMBL3885881, “DrugMatrix”
# Species on record: Rattus norvegicus
# Assay: DrugMatrix - Regimen: Daily Repeat
# Format: toxicity, organism-based, Sprague-Dawley
# Parameters: regimen Daily Repeat, gender Male, age 6-8 weeks
# Settings: in vivo, po, route oral GAVAGE, […]; for ABSOLUTE BASOPHIL / ABSOLUTE EOSINOPHIL / ABSOLUTE LYMPHOCYTE / ABSOLUTE MONOCYTE / ABSOLUTE SEGMENTED NEUTROPHIL / BASOPHIL / EOSINOPHIL / ERYTHROCYTE COUNT / HEMATOCRIT / HEMOGLOBIN / LEUKOCYTE COUNT / LYMPHOCYTE / MEAN CORPUSCULAR HEMOGLOBIN / MEAN CORPUSCULAR HEMOGLOBIN CONCENTRATION / MEAN CORPUSCULAR VOLUME / MONOCYTE / NEUTROPHIL / NUCLEATED RED BLOOD CELLS / PLATELET COUNT: tissue Blood; for ALANINE AMINOTRANSFERASE / ALBUMIN / ALKALINE PHOSPHATASE / ASPARTATE AMINOTRANSFERASE / BLOOD UREA NITROGEN / CARBON DIOXIDE / CHLORIDE / CHOLESTEROL / CREATINE PHOSPHOKINASE / CREATININE / GLUCOSE / LACTATE DEHYDROGENASE / LIPASE / PHOSPHORUS / POTASSIUM / SODIUM / TOTAL BILIRUBIN / TOTAL PROTEIN / URIC ACID: tissue Plasma
# [1] = 75 mg/kg, 72 h, dose level High, time 3 day
# [2] = 75 mg/kg, 120 h, dose level High, time 5 day
# [3] = 72 h, dose 7.5 mg/Kg, dose level Low, time 3 day
# [4] = 120 h, dose 7.5 mg/Kg, dose level Low, time 5 day
compound,measurement,setting,value
C[C@@H]1CC[C@@]2(OC1)O[C@H]1[C@@H](O)[C@H]3[C@@H]4CC[C@H]5C[C@@H](O[C@@H]6O[C@H](CO)[C@H](O[C@@H]7O[C@H](CO)C(O)[C@H](O[C@@H]8OC[C@@H](O)[C@H](O)[C@H]8O)[C@H]7O[C@@H]7O[C@H](CO)[C@H](O)[C@H](O[C@@H]8O[C@H](CO)[C@@H](O)[C@H](O)[C@H]8O)[C@H]7O)[C@H](O)[C@H]6O)[C@H](O)C[C@]5(C)[C@H]4CC[C@]3(C)[C@H]1[C@@H]2C (some centres not stated) [DIGITONIN],ABSOLUTE BASOPHIL,[1],0 CELLS/uL
same,ABSOLUTE EOSINOPHIL,[1],39.67 CELLS/uL
same,ABSOLUTE LYMPHOCYTE,[1],12631.67 CELLS/uL
same,ABSOLUTE MONOCYTE,[1],0 CELLS/uL
same,ABSOLUTE SEGMENTED NEUTROPHIL,[1],1028.67 CELLS/uL
same,BASOPHIL,[1],0%
same,EOSINOPHIL,[1],0.33%
same,ERYTHROCYTE COUNT,[1],5.46 x10E6/uL
same,HEMATOCRIT,[1],34.9%
same,HEMOGLOBIN,[1],13.03 G/DL
same,LEUKOCYTE COUNT,[1],13.7 x10E3/uL
same,LYMPHOCYTE,[1],92.33%
same,MEAN CORPUSCULAR HEMOGLOBIN,[1],23.83 pg
same,MEAN CORPUSCULAR HEMOGLOBIN CONCENTRATION,[1],37.37 G/DL
same,MEAN CORPUSCULAR VOLUME,[1],63.8 fL
same,MONOCYTE,[1],0%
same,NEUTROPHIL,[1],7.33%
same,NUCLEATED RED BLOOD CELLS,[1],0 /100WBC
same,PLATELET COUNT,[1],1082.67 x10E3/uL
same,ALANINE AMINOTRANSFERASE,[1],64 u/L
same,ALBUMIN,[1],4.23 G/DL
same,ALKALINE PHOSPHATASE,[1],395.33 u/L
same,ASPARTATE AMINOTRANSFERASE,[1],86.33 u/L
same,BLOOD UREA NITROGEN,[1],16.67 mg/dL
same,CARBON DIOXIDE,[1],25.33 mmol/L
same,CHLORIDE,[1],102 MEQ/L
same,CHOLESTEROL,[1],78 mg/dL
same,CREATINE PHOSPHOKINASE,[1],233.67 u/L
same,CREATININE,[1],0.17 mg/dL
same,GLUCOSE,[1],178.33 mg/dL
same,LACTATE DEHYDROGENASE,[1],118.33 u/L
same,LIPASE,[1],9 u/L
same,PHOSPHORUS,[1],13.13 mg/dL
same,POTASSIUM,[1],6.32 MEQ/L
same,SODIUM,[1],144.17 MEQ/L
same,TOTAL BILIRUBIN,[1],0.23 mg/dL
same,TOTAL PROTEIN,[1],5.93 G/DL
same,URIC ACID,[1],2.1 mg/dL
same,ABSOLUTE BASOPHIL,[2],0 CELLS/uL
same,ABSOLUTE EOSINOPHIL,[2],43.33 CELLS/uL
same,ABSOLUTE LYMPHOCYTE,[2],6877 CELLS/uL
same,ABSOLUTE MONOCYTE,[2],37 CELLS/uL
same,ABSOLUTE SEGMENTED NEUTROPHIL,[2],776 CELLS/uL
same,BASOPHIL,[2],0%
same,EOSINOPHIL,[2],0.67%
same,ERYTHROCYTE COUNT,[2],5.49 x10E6/uL
same,HEMATOCRIT,[2],35.43%
same,HEMOGLOBIN,[2],13.27 G/DL
same,LEUKOCYTE COUNT,[2],7.73 x10E3/uL
same,LYMPHOCYTE,[2],89.33%
same,MEAN CORPUSCULAR HEMOGLOBIN,[2],24.17 pg
same,MEAN CORPUSCULAR HEMOGLOBIN CONCENTRATION,[2],37.47 G/DL
same,MEAN CORPUSCULAR VOLUME,[2],64.5 fL
same,MONOCYTE,[2],0.33%
same,NEUTROPHIL,[2],9.67%
same,NUCLEATED RED BLOOD CELLS,[2],0 /100WBC
same,PLATELET COUNT,[2],1285 x10E3/uL
same,ALANINE AMINOTRANSFERASE,[2],65.67 u/L
same,ALBUMIN,[2],4.4 G/DL
same,ALKALINE PHOSPHATASE,[2],444.33 u/L
same,ASPARTATE AMINOTRANSFERASE,[2],85.67 u/L
same,BLOOD UREA NITROGEN,[2],15.67 mg/dL
same,CARBON DIOXIDE,[2],24 mmol/L
same,CHLORIDE,[2],100 MEQ/L
same,CHOLESTEROL,[2],62 mg/dL
same,CREATINE PHOSPHOKINASE,[2],202.67 u/L
same,CREATININE,[2],0.15 mg/dL
same,GLUCOSE,[2],146.67 mg/dL
same,LACTATE DEHYDROGENASE,[2],137.67 u/L
same,LIPASE,[2],8.33 u/L
same,PHOSPHORUS,[2],10.97 mg/dL
same,POTASSIUM,[2],5.88 MEQ/L
same,SODIUM,[2],147.6 MEQ/L
same,TOTAL BILIRUBIN,[2],0.23 mg/dL
same,TOTAL PROTEIN,[2],6 G/DL
same,URIC ACID,[2],0.83 mg/dL
same,ABSOLUTE BASOPHIL,[3],0 CELLS/uL
same,ABSOLUTE EOSINOPHIL,[3],77.33 CELLS/uL
same,ABSOLUTE LYMPHOCYTE,[3],10391.33 CELLS/uL
same,ABSOLUTE MONOCYTE,[3],34.33 CELLS/uL
same,ABSOLUTE SEGMENTED NEUTROPHIL,[3],1397 CELLS/uL
same,BASOPHIL,[3],0%
same,EOSINOPHIL,[3],0.67%
same,ERYTHROCYTE COUNT,[3],5.69 x10E6/uL
same,HEMATOCRIT,[3],35.5%
same,HEMOGLOBIN,[3],13.27 G/DL
same,LEUKOCYTE COUNT,[3],11.9 x10E3/uL
same,LYMPHOCYTE,[3],87.33%
same,MEAN CORPUSCULAR HEMOGLOBIN,[3],23.33 pg
same,MEAN CORPUSCULAR HEMOGLOBIN CONCENTRATION,[3],37.4 G/DL
same,MEAN CORPUSCULAR VOLUME,[3],62.47 fL
same,MONOCYTE,[3],0.33%
same,NEUTROPHIL,[3],11.67%
same,NUCLEATED RED BLOOD CELLS,[3],0 /100WBC
same,PLATELET COUNT,[3],1266.67 x10E3/uL
same,ALANINE AMINOTRANSFERASE,[3],59.33 u/L
same,ALBUMIN,[3],4.13 G/DL
same,ALKALINE PHOSPHATASE,[3],424 u/L
same,ASPARTATE AMINOTRANSFERASE,[3],79 u/L
same,BLOOD UREA NITROGEN,[3],14 mg/dL
same,CARBON DIOXIDE,[3],25.67 mmol/L
same,CHLORIDE,[3],100.67 MEQ/L
same,CHOLESTEROL,[3],70.67 mg/dL
same,CREATINE PHOSPHOKINASE,[3],187 u/L
same,CREATININE,[3],0.18 mg/dL
same,GLUCOSE,[3],156.33 mg/dL
same,LACTATE DEHYDROGENASE,[3],100.33 u/L
same,LIPASE,[3],8.67 u/L
same,PHOSPHORUS,[3],12.73 mg/dL
same,POTASSIUM,[3],6.51 MEQ/L
same,SODIUM,[3],145.03 MEQ/L
same,TOTAL BILIRUBIN,[3],0.23 mg/dL
same,TOTAL PROTEIN,[3],5.73 G/DL
same,URIC ACID,[3],2.23 mg/dL
same,ABSOLUTE BASOPHIL,[4],0 CELLS/uL
same,ABSOLUTE EOSINOPHIL,[4],102 CELLS/uL
same,ABSOLUTE LYMPHOCYTE,[4],14620 CELLS/uL
same,ABSOLUTE MONOCYTE,[4],219 CELLS/uL
same,ABSOLUTE SEGMENTED NEUTROPHIL,[4],1792.33 CELLS/uL
same,BASOPHIL,[4],0%
same,EOSINOPHIL,[4],0.67%
same,ERYTHROCYTE COUNT,[4],5.47 x10E6/uL
same,HEMATOCRIT,[4],35.23%
same,HEMOGLOBIN,[4],13.57 G/DL
same,LEUKOCYTE COUNT,[4],16.73 x10E3/uL
same,LYMPHOCYTE,[4],87.33%
same,MEAN CORPUSCULAR HEMOGLOBIN,[4],24.83 pg
same,MEAN CORPUSCULAR HEMOGLOBIN CONCENTRATION,[4],38.5 G/DL
same,MEAN CORPUSCULAR VOLUME,[4],64.37 fL
same,MONOCYTE,[4],1.33%
same,NEUTROPHIL,[4],10.67%
same,NUCLEATED RED BLOOD CELLS,[4],0 /100WBC
same,PLATELET COUNT,[4],1216 x10E3/uL
same,ALANINE AMINOTRANSFERASE,[4],57.33 u/L
same,ALBUMIN,[4],4.3 G/DL
same,ALKALINE PHOSPHATASE,[4],437 u/L
same,ASPARTATE AMINOTRANSFERASE,[4],80.33 u/L
same,BLOOD UREA NITROGEN,[4],14.67 mg/dL
same,CARBON DIOXIDE,[4],28.67 mmol/L
same,CHLORIDE,[4],100.67 MEQ/L
same,CHOLESTEROL,[4],53.67 mg/dL
same,CREATINE PHOSPHOKINASE,[4],222.67 u/L
same,CREATININE,[4],0.22 mg/dL
same,GLUCOSE,[4],160.33 mg/dL
same,LACTATE DEHYDROGENASE,[4],207.67 u/L
same,LIPASE,[4],8 u/L
same,PHOSPHORUS,[4],11.63 mg/dL
same,POTASSIUM,[4],6.09 MEQ/L
same,SODIUM,[4],144.37 MEQ/L
same,TOTAL BILIRUBIN,[4],0.2 mg/dL
same,TOTAL PROTEIN,[4],6.03 G/DL
same,URIC ACID,[4],1.47 mg/dL
